In patent US20210317134A1, “UBIQUITIN-SPECIFIC-PROCESSING PROTEASE 7 (USP7) MODULATORS AND USES THEREOF” (RAPT THERAPEUTICS, INC., priority 2019, published 2021):

Target: USP7 (Homo sapiens, UniProt Q93009)
Assay: USP7 inhibitory potency (Table 1)
Format: biochemical

Chain of USP7 (Q93009 whole entry): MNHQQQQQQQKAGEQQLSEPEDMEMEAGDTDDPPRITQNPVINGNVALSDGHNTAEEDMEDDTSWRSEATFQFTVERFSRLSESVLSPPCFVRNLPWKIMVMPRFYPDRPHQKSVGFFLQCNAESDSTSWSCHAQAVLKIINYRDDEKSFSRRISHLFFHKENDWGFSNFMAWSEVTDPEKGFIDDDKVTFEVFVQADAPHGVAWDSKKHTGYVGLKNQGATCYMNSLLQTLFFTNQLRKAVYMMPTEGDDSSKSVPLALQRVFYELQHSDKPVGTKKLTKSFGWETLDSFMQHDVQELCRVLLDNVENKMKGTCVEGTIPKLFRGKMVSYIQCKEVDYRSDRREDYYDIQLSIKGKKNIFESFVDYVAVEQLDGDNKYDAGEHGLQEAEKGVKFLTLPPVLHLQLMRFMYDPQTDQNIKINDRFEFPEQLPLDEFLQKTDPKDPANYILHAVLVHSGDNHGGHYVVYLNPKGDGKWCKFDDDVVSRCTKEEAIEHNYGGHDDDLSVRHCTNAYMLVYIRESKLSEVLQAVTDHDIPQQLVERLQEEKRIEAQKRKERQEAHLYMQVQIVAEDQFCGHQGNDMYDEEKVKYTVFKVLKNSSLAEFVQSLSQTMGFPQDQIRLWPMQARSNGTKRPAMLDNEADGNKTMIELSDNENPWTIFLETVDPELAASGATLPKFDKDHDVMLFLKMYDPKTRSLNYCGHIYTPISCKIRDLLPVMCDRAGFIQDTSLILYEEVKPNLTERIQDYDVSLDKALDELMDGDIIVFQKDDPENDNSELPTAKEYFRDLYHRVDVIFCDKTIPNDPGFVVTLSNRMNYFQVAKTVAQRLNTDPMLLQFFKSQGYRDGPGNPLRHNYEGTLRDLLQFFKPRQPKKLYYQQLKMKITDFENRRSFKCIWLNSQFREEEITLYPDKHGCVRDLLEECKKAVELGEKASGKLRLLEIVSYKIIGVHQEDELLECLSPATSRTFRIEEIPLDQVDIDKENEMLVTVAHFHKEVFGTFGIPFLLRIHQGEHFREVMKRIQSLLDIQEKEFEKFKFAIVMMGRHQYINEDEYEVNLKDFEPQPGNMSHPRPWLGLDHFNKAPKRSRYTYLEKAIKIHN

Row | IC50 | SMILES
1 | 1000 to 10000 nM | O=C(C1Cc2cc(Cl)cc(-c3ccnc4[nH]ccc34)c2O1)N1CCC(O)(c2ccc(F)cc2Cl)CC1 (stereo not drawn) [(4-(2-chloro-4-fluorophenyl)-4-hydroxypiperidin-1-yl)(5-chloro-7-(1H-pyrrolo[2,3-b]pyridin-4-yl)-2,3-dihydrobenzofuran-2-yl)methanone]
2 | < 1000 nM | CC(=O)NCc1cc2nccc(-c3cc(Cl)cc4c3O[C@@H](c3c5c(nn3C)CCNC5)C4)c2s1 [(R)-N-((7-(5-chloro-2-(2-methyl-4,5,6,7-tetrahydro-2H-pyrazolo[4,3-c]pyridin-3-yl)-2,3-dihydrobenzofuran-7-yl)thieno[3,2-b]pyridin-2-yl)methyl)acetamide]
3 | < 1000 nM | Cn1nc2c(c1[C@H]1Cc3cc(Cl)cc(-c4ccnc5cc(CO)sc45)c3O1)CNCC2 [(R)-(7-(5-chloro-2-(2-methyl-4,5,6,7-tetrahydro-2H-pyrazolo[4,3-c]pyridin-3-yl)-2,3-dihydrobenzofuran-7-yl)thieno[3,2-b]pyridin-2-yl)methanol]
4 | < 1000 nM | CCc1cc2nccc(-c3cc(Cl)cc4c3O[C@@H](c3onc5c3CNCC5)C4)c2s1 [(R)-3-(5-chloro-7-(2-ethylthieno[3,2-b]pyridin-7-yl)-2,3-dihydrobenzofuran-2-yl)-4,5,6,7-tetrahydroisoxazolo[4,3-c]pyridine]
5 | 10000 to 30000 nM | O=C(C1Cc2cc(Cl)cc(-c3ccnc4c3ccn4Cc3ccccc3)c2O1)N1CCNCC1 (stereo not drawn) [(7-(1-Benzyl-1H-pyrrolo[2,3-b]pyridin-4-yl)-5-chloro-2,3-dihydrobenzofuran-2-yl)(piperazin-1-yl)methanone]
6 | 10000 to 30000 nM | O=C(C1Cc2cc(Cl)cc(-c3ccnc4[nH]ccc34)c2O1)N1CCC(c2ccc(O)cc2)CC1 (stereo not drawn) [(5-chloro-7-(1H-pyrrolo[2,3-b]pyridin-4-yl)-2,3-dihydrobenzofuran-2-yl)(4-(4-hydroxyphenyl)piperidin-1-yl)methanone]
7 | 1000 to 10000 nM | O=C([C@H]1Cc2cc(Cl)cc(-c3ccnc4sccc34)c2O1)N1CCNCC1 [(R)-(5-chloro-7-(thieno[2,3-b]pyridin-4-yl)-2,3-dihydrobenzofuran-2-yl)(piperazin-1-yl)methanone]
8 | 1000 to 10000 nM | CN(C)[C@H]1CCc2noc(C3Cc4cc(Cl)cc(-c5ccnc6cc(CO)sc56)c4O3)c2C1 (stereo partly drawn) [(7-(5-chloro-2-((S)-5-(dimethylamino)-4,5,6,7-tetrahydrobenzo[c]isoxazol-3-yl)-2,3-dihydrobenzofuran-7-yl)thieno[3,2-b]pyridin-2-yl)methanol]
9 | < 1000 nM | CN1CC(=O)N(Cc2cc3nccc(-c4cc(Cl)cc5c4O[C@@H](C(=O)N4CCNCC4)C5)c3s2)C1=O [(R)-3-((7-(5-chloro-2-(piperazine-1-carbonyl)-2,3-dihydrobenzofuran-7-yl)thieno[3,2-b]pyridin-2-yl)methyl)-1-methylimidazolidine-2,4-dione]
10 | 1000 to 10000 nM | CN(C)C(=O)C1Cc2nccc(-c3cc(Cl)cc4c3O[C@@H](c3onc5c3CNCC5)C4)c2C1 (stereo partly drawn) [4-((R)-5-chloro-2-(4,5,6,7-tetrahydroisoxazolo[4,3-c]pyridin-3-yl)-2,3-dihydrobenzofuran-7-yl)-N,N-dimethyl-6,7-dihydro-5H-cyclopenta[b]pyridine-6-carboxamide]
11 | < 1000 nM | O=C([C@H]1Cc2cc(Cl)cc(-c3ccnc4ccsc34)c2O1)N1CCNCC1 [(R)-(5-chloro-7-(thieno[3,2-b]pyridin-7-yl)-2,3-dihydrobenzofuran-2-yl)(piperazin-1-yl)methanone]
12 | 10000 to 30000 nM | O=C(C1Cc2cc(Cl)cc(-c3ccnc4ccncc34)c2O1)N1CCNCC1 (stereo not drawn) [(5-chloro-7-(1,6-naphthyridin-4-yl)-2,3-dihydrobenzofuran-2-yl)(piperazin-1-yl)methanone]
13 | 1000 to 10000 nM | O=C(C1Cc2cc(Cl)cc(-c3ccnc4[nH]ccc34)c2O1)N1CCC(c2ccccc2O)CC1 (stereo not drawn) [(5-chloro-7-(1H-pyrrolo[2,3-b]pyridin-4-yl)-2,3-dihydrobenzofuran-2-yl)(4-(2-hydroxyphenyl)piperidin-1-yl)methanone]
14 | 1000 to 10000 nM | N#Cc1ccc2nccc(-c3cc(Cl)cc4c3O[C@@H](c3onc5c3CNCC5)C4)c2c1 [(R)-4-(5-chloro-2-(4,5,6,7-tetrahydroisoxazolo[4,3-c]pyridin-3-yl)-2,3-dihydrobenzofuran-7-yl)quinoline-6-carbonitrile]
15 | < 1000 nM | OC1(c2cc3nccc(-c4cc(Cl)cc5c4O[C@@H](c4onc6c4CNCC6)C5)c3s2)COC1 [(R)-3-(7-(5-chloro-2-(4,5,6,7-tetrahydroisoxazolo[4,3-c]pyridin-3-yl)-2,3-dihydrobenzofuran-7-yl)thieno[3,2-b]pyridin-2-yl)oxetan-3-ol]
16 | 1000 to 10000 nM | O=C(C1Cc2cc(Cl)c(Cl)c(-c3ccnc4[nH]ccc34)c2O1)N1CCNCC1 (stereo not drawn) [(5,6-dichloro-7-(1H-pyrrolo[2,3-b]pyridin-4-yl)-2,3-dihydrobenzofuran-2-yl)(piperazin-1-yl)methanone]
17 | < 1000 nM | CC[C@H](O)c1cc2ncnc(-c3cc(Cl)cc4c3O[C@@H](c3onc5c3CNCC5)C4)c2s1 [(S)-1-(4-((R)-5-chloro-2-(4,5,6,7-tetrahydroisoxazolo[4,3-c]pyridin-3-yl)-2,3-dihydrobenzofuran-7-yl)thieno[3,2-d]pyrimidin-6-yl)propan-1-ol]
18 | 1000 to 10000 nM | CNC(=O)c1ccc2c(-c3cc(Cl)cc4c3OC(C(=O)N3CCNCC3)C4)ccnc2c1 (stereo not drawn) [4-(5-chloro-2-(piperazine-1-carbonyl)-2,3-dihydrobenzofuran-7-yl)-N-methylquinoline-7-carboxamide]
19 | 1000 to 10000 nM | CS(=O)(=O)NCc1ccc2c(-c3cc(Cl)cc4c3O[C@@H](c3onc5c3CNCC5)C4)ccnc2c1 [(R)-N-((4-(5-chloro-2-(4,5,6,7-tetrahydroisoxazolo[4,3-c]pyridin-3-yl)-2,3-dihydrobenzofuran-7-yl)quinolin-7-yl)methyl)methanesulfonamide]
20 | < 1000 nM | CCC(NC(C)=O)c1cc2nccc(-c3cc(Cl)cc4c3O[C@@H](C(=O)N3CCNCC3)C4)c2s1 (stereo partly drawn) [N-(1-(7-((R)-5-chloro-2-(piperazine-1-carbonyl)-2,3-dihydrobenzofuran-7-yl)thieno[3,2-b]pyridin-2-yl)propyl)acetamide]
21 | < 1000 nM | O=C1NC(=O)C(c2cc3nccc(-c4cc(Cl)cc5c4O[C@@H](C(=O)N4CCNCC4)C5)c3s2)N1 (stereo partly drawn) [5-(7-((R)-5-chloro-2-(piperazine-1-carbonyl)-2,3-dihydrobenzofuran-7-yl)thieno[3,2-b]pyridin-2-yl)imidazolidine-2,4-dione]
22 | 1000 to 10000 nM | O=C(C1Cc2cc(Cl)cc(-c3ccnc4[nH]ccc34)c2O1)N1CCN([C@H]2CC[C@H](c3ccccc3)CC2)CC1 (stereo partly drawn) [(5-chloro-7-(1H-pyrrolo[2,3-b]pyridin-4-yl)-2,3-dihydrobenzofuran-2-yl)(4-((1s,4r)-4-phenylcyclohexyl)piperazin-1-yl)methanone]
23 | 1000 to 10000 nM | CC1(C(=O)N2CCNCC2)Cc2cc(Cl)cc(-c3ccnc4[nH]ccc34)c2O1 (stereo not drawn) [(5-chloro-2-methyl-7-(1H-pyrrolo[2,3-b]pyridin-4-yl)-2,3-dihydrobenzofuran-2-yl)(piperazin-1-yl)methanone]
24 | 1000 to 10000 nM | O=C([C@H]1Cc2cc(Cl)cc(-c3ccnc4occc34)c2O1)N1CCNCC1 [(R)-(5-chloro-7-(furo[2,3-b]pyridin-4-yl)-2,3-dihydrobenzofuran-2-yl)(piperazin-1-yl)methanone]
